US9255107B2 (NANJING SANHOME PHARMACEUTICAL CO., LTD., priority 2012, dated 2016)

Experiments:
[1] = system: MDA-MB-231 human breast cancer cells; assay: MTT assay, in vitro inhibitory activity on cells; type: cell-based; settings: typically 48 hours
Source text: (§1) In this example, MTT assay was used to detect in vitro inhibitory activity of the compounds prepared according to the above examples on the cells.
(§2) Dimethyl sulfoxide (DMSO) is capable of dissolving formazan in cells, and absorbance value can be measured at a wavelength of 490 nm by an enzyme-linked immunometric meter, which reflects the number of living cells. Within a certain range of the number of cells, the amount of MTT crystals formed is proportional to the number of living cells.
(§3) 2. Culturing in a 37° C., 5% CO2 incubator and keeping the cells adhering to the walls of the wells.
(§4) 4. Carefully removing the supernatant, gently washing with PBS and discarding the supernatant again.
(§5) 6. Terminating culturing and carefully discarding the medium in each well. 7. Adding 150 μl dimethyl sulfoxide into each well, shaking for 10 minutes at low speed in a shaker, to make crystals fully dissolved.
(§6) 8. Measuring the absorbance of each well at 490 nm by an enzyme-linked immunometric meter.

[2] = system: K562 leukemia cells; assay: MTT assay, in vitro inhibitory activity on cells; type: cell-based; settings: Homo sapiens, typically 48 hours, read-out: IC50 K562 Chronic myelogenous leukemia cells
Source text: as §1, §2, §3, §4, §5, §6

Structure (SMILES) | IC50 [1] [nM] | IC50 [2] [nM]
Cc1ccc(NC(=O)Nc2ccc(CN3CCN(C)CC3)c(C(F)(F)F)c2)cc1C#Cc1cnc2[nH]ncc2c1 [Example 1, N-[3-((1H-pyrazolo[3,4-b]pyridin-5-yl)ethynyl)-4-methylphenyl]-N′-[4-((4-methylpiperazin-1-yl)methyl)-3-trifluoromethylphenyl]urea] | 2790 | 4130
CNc1nc2cc(C#Cc3cc(NC(=O)Nc4ccc(CN5CCN(C)CC5)c(C(F)(F)F)c4)ccc3C)ccn2n1 [Example 7] |  | 5070
Cc1ccc(NC(=O)Nc2ccc(CN3CCN(C)CC3)c(C(F)(F)F)c2)cc1C#Cc1ccn2nc(N(C)C)nc2c1 [Example 8] |  | 420
Cc1ccc(NC(=O)Nc2ccc(CN3CCN(C)CC3)c(C(F)(F)F)c2)cc1C#Cc1cn(C)c(-c2ncc(C(F)(F)F)[nH]2)n1 [Example 14, N-[4-methyl-3-((1-methyl-5′-trifluoromethyl-1H,1′H-[2,2′-diimidazol]-4-yl)ethynyl)phenyl]-N′-[4-((4-methylpiperazin-1-yl)methyl)-3-trifluoromethylphenyl]urea] | 1210 | 160
Cc1cn(-c2cc(C(=O)Nc3ccc(F)c(C#Cc4ccc(-c5ncc(C(F)(F)F)[nH]5)nc4)c3)cc(C(F)(F)F)c2)cn1 [Example 24, 3-trifluoromethyl-5-(4-methylimidazol-1-yl)-N-[3-(2-(5-trifluoromethyl-1H-imidazol-2-yl)pyridin-5-yl)ethynyl-4-fluorophenyl]-benzamide] | 1170 | 940
CNC(=O)c1cc(Oc2ccc(NC(=O)c3ccc(C)c(C#Cc4ccc(-c5nc[nH]n5)nc4)c3)cc2)ccn1 [Example 26, 4-methyl-3-[2-([1,2,4]-1H-triazol-3-yl)pyridin-5-yl]ethynyl-N-[(2-N-methylcarbamoylpyridin-4-yl)oxy]phenylbenzamide] |  | 5910

The next lines start with the values.

IC50 [1] [nM] | IC50 [2] [nM] | Structure (SMILES)
290 | 520 | Cc1ccc(NC(=O)Nc2ccc(CN3CC[C@@H](N(C)C)C3)c(F)c2)cc1C#Cc1cn(C)c(-c2ncc(C(F)(F)F)[nH]2)n1 [Example 13, N-[4-methyl-3-((1-methyl-5′-trifluoromethyl-1H,1′H-[2,2′-diimidazol]-4-yl)ethynyl)phenyl]-N′—(R)-[4-((3-dimethylaminotetrahydropyrrol-1-yl)methyl)-3-fluorophenyl]urea]
560 | 370 | Cc1ccc(NC(=O)c2ccc(CN3CCN(CCO)CC3)c(C(F)(F)F)c2)cc1C#Cc1cn(C)c(-c2ncc(C(F)(F)F)[nH]2)n1 [Example 15]
4720 | 2210 | Cc1ccc(C(=O)Nc2ccc(CN3CC[C@@H](N(C)C)C3)c(C(F)(F)F)c2)cc1C#Cc1ccc(-c2ncc(C(F)(F)F)[nH]2)nc1 [Example 20, 4-methyl-3-((2-(5-trifluoromethyl-1H-imidazol-2-yl)pyridin-5-yl)ethynyl)-N—[(R)-4-((3-dimethylaminotetrahydropyrrol-1-yl)methyl)-3-trifluoromethylphenyl]benzamide]
2060 | 3590 | Cc1ccc(NC(=O)c2ccc(CN3CCN(C)CC3)cc2)cc1C#Cc1ccc(-c2ncc(C#N)[nH]2)nc1 [Example 21]
1150 | 4070 | Cc1ccc(C(=O)Nc2ccc(CN3CC[C@H](N(C)C)C3)c(C(F)(F)F)c2)cc1C#Cc1ccc(-c2ncc(F)[nH]2)nc1 [Example 22, 4-methyl-3-((2-(5-fluoro-1H-imidazol-2-yl)pyridin-5-yl)ethynyl)-N-[(S)-4-((3-dimethylaminotetrahydropyrrol-1-yl)methyl)-3-trifluoromethylphenyl]benzamide]
 | 3310 | Cc1ccc(NC(=O)Nc2ccc(CN3CCN(C)CC3)c(C(F)(F)F)c2)cc1C#Cc1ccc(-c2ncc(C#N)[nH]2)nc1 [Example 23, N-[3-(2-(5-acetonitrile-1H-imidazol-2-yl)pyridin-5-yl)ethynyl-4-methylphenyl]-N′-[3-trifluoromethyl-4-(4-methylpiperazin-1-ylmethyl)phenyl]urea]
